Assay results taken from patent US20240308992A1 (Biopolar Youtang(Guangdong) Pharmaceutical Co., Ltd., priority 2021, published 2024).
pIC50: −log10 of the molar value.

target: T1, Drak2 (Homo sapiens, UniProt O94768); test: Drak2 activity test, ADP-Glo kinase assay (Promega); format: biochemical; conditions: inhibition of Drak2 kinase activity, 2 h room temperature, activity range classes, read-out: IC50_Drak2
T1 sequence (O94768 1-372): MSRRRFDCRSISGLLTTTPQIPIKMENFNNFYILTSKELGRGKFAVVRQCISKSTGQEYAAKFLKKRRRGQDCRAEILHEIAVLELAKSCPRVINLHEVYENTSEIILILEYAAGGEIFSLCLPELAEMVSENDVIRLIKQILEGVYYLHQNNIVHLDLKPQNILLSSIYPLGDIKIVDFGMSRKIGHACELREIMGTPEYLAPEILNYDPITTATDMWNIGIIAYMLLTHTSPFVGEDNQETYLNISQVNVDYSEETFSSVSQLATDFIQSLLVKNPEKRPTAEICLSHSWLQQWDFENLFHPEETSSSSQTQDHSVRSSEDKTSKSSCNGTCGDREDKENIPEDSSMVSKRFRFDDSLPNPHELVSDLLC

Row | SMILES | pIC50
1 | COc1cc(-c2cncc(-c3cc(NC(=O)CC4CCCC4)cs3)n2)ccc1C(=O)N(C)C1CCN(C)CC1 [Example B61, 4-(6-(4-(2-cyclopentylacetamido)thiophen-2-yl)pyrazin-2-yl)-2-methoxy-N-methyl-N-(1-methylpiperidin-4-yl)benzamide] | 7.00 to 7.96
2 | COc1cc(-c2cncc(-c3cc(NC(=O)CC4CCC4)cs3)n2)ccc1C(=O)N(C)C1CCN(C)CC1 [Example B63, 4-(6-(4-(2-cyclobutylacetamido)thiophen-2-yl)pyrazin-2-yl)-2-methoxy-N-methyl-N-(1-methylpiperidin-4-yl)benzamide] | > 8.00
3 | COc1cc(-c2cncc(-c3cc(NC(=O)CC4CCCC4)cs3)n2)ccc1C(=O)Nc1nnco1 [Example B64, 4-(6-(4-(2-cyclopentylacetamido)thiophen-2-yl)pyrazin-2-yl)-2-methoxy-N-(1,3,4-oxadiazol-2-yl)benzamide] | 7.00 to 7.96
4 | CCCCC(=O)Nc1csc(-c2nccc(-c3ccc(C(=O)N(C)C4CCN(C)CC4)c(OC)c3)n2)c1 [Example B66, 2-methoxy-N-methyl-N-(1-methylpiperidin-4-yl)-4-(2-(4-pentanamidothiophen-2-yl)pyrimidin-4-yl)benzamide] | 5.00 to 6.00
5 | CCCCC(=O)Nc1csc(-c2cncc(-c3ccc(C(=O)N(C)C4CCN(C5CC5)CC4)c(OC)c3)n2)c1 [Example B69, N-(1-cyclopropylpiperidin-4-yl)-2-methoxy-N-methyl-4-(6-(4-pentanamidothiophen-2-yl)pyrazin-2-yl)benzamide] | > 8.00
6 | CCCCC(=O)Nc1csc(-c2cncc(-c3ccc(C(=O)N(C)C4CCN(CC(F)(F)F)CC4)c(OC)c3)n2)c1 [Example B70, 2-methoxy-N-methyl-4-(6-(4-pentanamidothiophen-2-yl)pyrazin-2-yl)-N-(1-(2,2,2-trifluoroethyl)piperidin-4-yl)benzamide] | 6.00 to 7.00
7 | CCCCC(=O)Nc1csc(-c2cncc(-c3ccc(C(=O)N(C)C4CCN(C)CC4)c(F)c3)n2)c1 [Example B73, 2-fluoro-N-methyl-N-(1-methylpiperidin-4-yl)-4-(6-(4-pentanamidothiophen-2-yl)pyrazin-2-yl)benzamide] | 6.00 to 7.00
8 | CCCCC(=O)Nc1csc(-c2cncc(-c3cc(F)c(C(=O)N(C)C4CCN(C)CC4)c(F)c3)n2)c1 [Example B74, 2,6-difluoro-N-methyl-N-(1-methylpiperidin-4-yl)-4-(6-(4-pentanamidothiophen-2-yl)pyrazin-2-yl)benzamide] | 6.00 to 7.00
9 | CCCCC(=O)Nc1csc(-c2cccc(-c3ccc(C(=O)N(C4CC4)C4CCN(C)CC4)c(OC)c3)n2)c1 [Example B75, N-cyclopropyl-2-methoxy-N-(1-methylpiperidin-4-yl)-4-(6-(4-pentanamidothiophen-2-yl)pyridin-2-yl)benzamide] | < 5.00
10 | CCCCC(=O)Nc1csc(-c2cncc(-c3ccc(C(=O)N(C4CC4)C4CCN(C)CC4)c(OC)c3)n2)c1 [Example B76, N-cyclopropyl-2-methoxy-N-(1-methylpiperidin-4-yl)-4-(6-(4-pentanamidothiophen-2-yl)pyrazin-2-yl)benzamide] | 7.00 to 7.96
11 | COc1cc(-c2cncc(-c3cc(NC(=O)CC45CC(C4)C5)cs3)n2)ccc1C(=O)Nc1nnco1 [Example B80, 4-(6-(4-(2-(bicyclo[1.1.1]pentan-1-yl)acetamido)thiophen-2-yl)pyrazin-2-yl)-2-methoxy-N-(1,3,4-oxadiazol-2-yl)benzamide] | 7.00 to 7.96
12 | COc1cc(-c2cncc(-c3cc(NC(=O)CC4(C)COC4)cs3)n2)ccc1C(=O)N(C)C1CCN(C)CC1 [Example B82, 2-methoxy-N-methyl-4-(6-(4-(2-(3-methyloxetan-3-yl)acetamido)thiophen-2-yl)pyrazin-2-yl)-N-(1-methylpiperidin-4-yl)benzamide] | 6.00 to 7.00
13 | COc1cc(-c2cncc(-c3cc(NC(=O)C4CC45CCC5)cs3)n2)ccc1C(=O)N(C)C1CCN(C)CC1 (centres unmarked) [Example B84, N-(5-(6-(3-methoxy-4-(methyl(1-methylpiperidin-4-yl)carbamoyl)phenyl)pyrazin-2-yl)thiophen-3-yl)spiro[2.3]hexane-1-carboxamide] | 7.00 to 7.96
14 | COc1cc(-c2cncc(-c3cc(NC(=O)CC4(c5ccc(C(F)(F)F)cc5)CCC4)cs3)n2)ccc1C(=O)N(C)C1CCN(C)CC1 [Example B85, 2-methoxy-N-methyl-N-(1-methylpiperidin-4-yl)-4-(6-(4-(2-(1-(4-(trifluoromethyl)phenyl)cyclobutyl)acetamido)thiophen-2-yl)pyrazin-2-yl)benzamide] | 6.00 to 7.00
15 | CCC1(CC(=O)Nc2csc(-c3cncc(-c4ccc(C(=O)N(C)C5CCN(C)CC5)c(OC)c4)n3)c2)CCC1 [Example B86, 4-(6-(4-(2-(1-ethylcyclobutyl)acetamido)thiophen-2-yl)pyrazin-2-yl)-2-methoxy-N-methyl-N-(1-methylpiperidin-4-yl)benzamide] | 6.00 to 7.00
16 | COc1cc(-c2cncc(-c3cc(NC(=O)CC4CC(C(C)=O)C4(C)C)cs3)n2)ccc1C(=O)N(C)C1CCN(C)CC1 (centres unmarked) [Example B87, 4-(6-(4-(2-(3-acetyl-2,2-dimethylcyclobutyl)acetamido)thiophen-2-yl)pyrazin-2-yl)-2-methoxy-N-methyl-N-(1-methylpiperidin-4-yl)benzamide] | 6.00 to 7.00
17 | COc1cc(-c2cncc(-c3cc(NC(=O)C(N)C4CCC4)cs3)n2)ccc1C(=O)N(C)C1CCN(C)CC1 (centres unmarked) [Example B88, 4-(6-(4-(2-amino-2-cyclobutylacetamido)thiophen-2-yl)pyrazin-2-yl)-2-methoxy-N-methyl-N-(1-methylpiperidin-4-yl)benzamide] | 6.00 to 7.00
18 | COc1cc(-c2cncc(-c3cc(NC(=O)CC4COC4)cs3)n2)ccc1C(=O)N(C)C1CCN(C)CC1 [Example B89, 2-methoxy-N-methyl-N-(1-methylpiperidin-4-yl)-4-(6-(4-(2-(oxetan-3-yl)acetamido)thiophen-2-yl)pyrazin-2-yl)benzamide] | 6.00 to 7.00
19 | COc1cc(-c2cncc(-c3cc(NC(=O)CC4CC(F)C4)cs3)n2)ccc1C(=O)N(C)C1CCN(C)CC1 (centres unmarked) [Example B90, 4-(6-(4-(2-(3-fluorocyclobutyl)acetamido)thiophen-2-yl)pyrazin-2-yl)-2-methoxy-N-methyl-N-(1-methylpiperidin-4-yl)benzamide] | > 8.00

Now from value to compound:

Row | pIC50 | SMILES
20 | 7.00 to 7.96 | COc1cc(-c2cncc(-c3cc(NC(=O)CC4CC4)cs3)n2)ccc1C(=O)N(C)C1CCN(C)CC1 [Example B60, 4-(6-(4-(2-cyclopropylacetamido)thiophen-2-yl)pyrazin-2-yl)-2-methoxy-N-methyl-N-(1-methylpiperidin-4-yl)benzamide]
21 | 7.00 to 7.96 | COc1cc(-c2cncc(-c3cc(NC(=O)CC4CCC4)cs3)n2)ccc1C(=O)Nc1nnco1 [Example B62, 4-(6-(4-(2-cyclobutylacetamido)thiophen-2-yl)pyrazin-2-yl)-2-methoxy-N-(1,3,4-oxadiazol-2-yl)benzamide]
22 | > 8.00 | CCCCC(=O)Nc1csc(-c2cncc(-c3ccc(C(=O)N(C)C4CCN(C(C)C)CC4)c(OC)c3)n2)c1 [Example B68, N-(1-isopropylpiperidin-4-yl)-2-methoxy-N-methyl-4-(6-(4-pentanamidothiophen-2-yl)pyrazin-2-yl)benzamide]
23 | 7.00 to 7.96 | CCCCC(=O)Nc1csc(-c2cncc(-c3ccc(C(=O)N(C)C4CCN(c5cnn(C)c5)CC4)c(OC)c3)n2)c1 [Example B71, 2-methoxy-N-methyl-N-(1-(1-methyl-1H-pyrazol-4-yl)piperidin-4-yl)-4-(6-(4-pentanamidothiophen-2-yl)pyrazin-2-yl)benzamide]
24 | 6.00 to 7.00 | CCCCC(=O)Nc1csc(-c2cncc(-c3ccc(C(=O)N(C)C4CCN(c5ncccn5)CC4)c(OC)c3)n2)c1 [Example B72, 2-methoxy-N-methyl-4-(6-(4-pentanamidothiophen-2-yl)pyrazin-2-yl)-N-(1-(pyrimidin-2-yl)piperidin-4-yl)benzamide]
25 | 7.00 to 7.96 | CCCCC(=O)Nc1csc(-c2cncc(-c3ccc(C(=O)N(C4CC4)C4CCN(C5CC5)CC4)c(OC)c3)n2)c1 [Example B78, N-cyclopropyl-N-(1-cyclopropylpiperidin-4-yl)-2-methoxy-4-(6-(4-pentanamidothiophen-2-yl)pyrazin-2-yl)benzamide]
26 | 7.00 to 7.96 | COc1cc(-c2cncc(-c3cc(NC(=O)CC4CC4)cs3)n2)ccc1C(=O)N(C)OC [Example B79, 4-(6-(4-(2-cyclopropylacetamido)thiophen-2-yl)pyrazin-2-yl)-N,2-dimethoxy-N-methylbenzamide]
27 | 7.00 to 7.96 | COc1cc(-c2cncc(-c3cc(NC(=O)CC4CCC4)cs3)n2)ccc1C(=O)N(C)OC [Example B81, 4-(6-(4-(2-cyclobutylacetamido)thiophen-2-yl)pyrazin-2-yl)-N,2-dimethoxy-N-methylbenzamide]
28 | 7.00 to 7.96 | COc1cc(-c2cncc(-c3cc(NC(=O)CC4CC(F)(F)C4)cs3)n2)ccc1C(=O)N(C)C1CCN(C)CC1 [Example B83, 4-(6-(4-(2-(3,3-difluorocyclobutyl)acetamido)thiophen-2-yl)pyrazin-2-yl)-2-methoxy-N-methyl-N-(1-methylpiperidin-4-yl)benzamide]
29 | 6.00 to 7.00 | COc1cc(-c2cncc(-c3cc(NC(=O)CC4CC(C(C)=O)C4)cs3)n2)ccc1C(=O)N(C)C1CCN(C)CC1 (centres unmarked) [Example B91, 4-(6-(4-(2-(3-acetylcyclobutyl)acetamido)thiophen-2-yl)pyrazin-2-yl)-2-methoxy-N-methyl-N-(1-methylpiperidin-4-yl)benzamide]
